Measurements reported in ChEMBL document CHEMBL1136152, “Synthesis and antioxidant efficiency of a new amphiphilic spin-trap derived from PBN and lipoic acid” (Bioorg Med Chem Lett, 2003).

Legend:
Assay type in all cases: functional
[1] = In vitro half-hemolysis time at the concentration of 100 uM
[2] = In vitro half-hemolysis time at the concentration of 200 uM
[3] = In vitro half-hemolysis time at the concentration of 500 uM
[4] = In vitro half-hemolysis time at the concentration of 50 uM
[5] = In vitro half-hemolysis time at the concentration of 100 uM with LAMPBN to LGT molar ratio = 0.67/1.33
[6] = In vitro half-hemolysis time at the concentration of 100 uM with LAMPBN to LGT molar ratio = 1.33/0.67
[7] = In vitro half-hemolysis time at the concentration of 100 uM with LAMPBN to LGT molar ratio = 1/1
[8] = In vitro half-hemolysis time at the concentration of 200 uM with LAMPBN to LGT molar ratio = 0.67/1.33
[9] = In vitro half-hemolysis time at the concentration of 200 uM with LAMPBN to LGT molar ratio = 1.33/0.67
[10] = In vitro half-hemolysis time at the concentration of 200 uM with LAMPBN to LGT molar ratio = 1/1
[11] = In vitro half-hemolysis time at the concentration of 500 uM with LAMPBN to LGT molar ratio = 0.67/1.33
[12] = In vitro half-hemolysis time at the concentration of 500 uM with LAMPBN to LGT molar ratio = 1.33/0.67
[13] = In vitro half-hemolysis time at the concentration of 500 uM with LAMPBN to LGT molar ratio = 1/1
[14] = In vitro half-hemolysis time at the concentration of 50 uM with LAMPBN to LGT molar ratio = 0.67/1.33
[15] = In vitro half-hemolysis time at the concentration of 50 uM with LAMPBN to LGT molar ratio = 1.33/0.67
[16] = In vitro half-hemolysis time at the concentration of 50 uM with LAMPBN to LGT molar ratio = 1/1

SMILES: CC(C)(COC(=O)NCCCNC(=O)CCCCC1CCSS1)/[N+]([O-])=C/c1ccc(CNC(=O)[C@H](O)[C@@H](O)[C@H](O[C@@H]2O[C@@H](CO)[C@H](O)[C@H](O)[C@@H]2O)[C@H](O)CO)cc1 (stereo partly specified)
- HT50 [1]: 82.9%
- HT50 [2]: 135%
- HT50 [3]: 167%
- HT50 [4]: 49%

SMILES: CC(C)(C)/[N+]([O-])=C/c1ccc(CNC(=O)[C@H](O)[C@@H](O)C(O[C@@H]2O[C@@H](CO)[C@H](O)[C@H](O)[C@@H]2O)[C@H](O)CO)cc1.O=C(CCCCC1CCSS1)NCC(=O)NC(CO)(CO)CO (stereo partly specified)
- HT50 [5]: 60.8%
- HT50 [6]: 47.4%
- HT50 [7]: 51.6%
- HT50 [8]: 62%
- HT50 [9]: 49.8%
- HT50 [10]: 53.7%
- HT50 [11]: 88.6%
- HT50 [12]: 86.3%
- HT50 [13]: 86.5%
- HT50 [14]: 56.6%
- HT50 [15]: 41.5%
- HT50 [16]: 44.6%
